Data from US20240254096A1, “ULTRAVIOLET AND VISIBLE RADIATION ABSORBING COMPOUNDS” (ELKIMIA INC., priority 2021, published 2024).
Values joined by “and” are separate entries in the source; they are usually repeats but may differ in a detail not shown here. Identical values can stand only once.

How the values were obtained:
[1] = Thermal stability by Thermogravimetric Analysis (TGA); format: physicochemical; conditions: for T onset: by intersection points of tangents
Protocol: Briefly, the residual weight (%) of the compounds was measured at different temperatures, including 100° C. for water boiling, and other temperatures corresponding to extrusion processes, and the T onset (° C.) by intersection points of tangents was checked. The results are represented in Table 16 below, and in FIG. 6.

[2] = SPF in vitro / UVA PF from UV transmittance through thin film on PMMA plates; conditions: for SPF in vitro mean / UV APF: 0.75 mg/cm^2; for SPF P / UV APF P: P (after irradiation, 800 J/m^2-eff)
Protocol: For determining the SPF in vitro value, the protection performance of compounds according to certain embodiments of the present technology, against erythemally-effective UV radiation, largely confined to the UVB (290-320 nm) and short-wavelength UVA (320-340) region, was calculated from the measured in vitro transmittance. The in vitro UVA PF, the UVA protection (320-400 nm), was calculated from the measured in vitro transmittance after irradiation. The Critical Wavelength Value was defined as the wavelength at which the integral of the spectral absorbance curve reached 90% of the integral over the UV spectrum from 290 to 400 nm. It has been settled that this value must be equal or over 370 nm so as to classify the product as broad-spectrum. The study consisted in a comparative assay of non-treated plates against plates treated with each of the compounds and was based on the evaluation of UV-transmittance through a thin film of sunscreen sample spread on a roughened substrate, before an after exposure to a controlled dose of UV radiation from a UV source. A Kontron 933 spectrophotometer equipped with a UV source, an integrating sphere and a monochromatic light able to deliver a flow of energy between 290 and 400 nm was used. The transmittance values were measured at 1 nm intervals. A 10-4 precision laboratory balance was used to control deposited product weight. The irradiation was provided by Sunset Atlas CPS+ with standard filter. Temperature regulation of the equipment was done in the range of 25-35° C. A pre-irradiation dose of 4 times 200 J/m^2-eff (800 J/m^2-eff) was delivered. The substrate was the material to which the sunscreen product was applied. Polymethylmethacrylate (PMMA) plates were used and were roughened on one side to a three-dimensional surface topography of 5 micrometers. Each compound was weighted and applied evenly to the PMMA plate with a 2-phase spreading to achieve a 0.75 mg/cm^2 weight/surface ratio. Spreading was performed with a light spreading move for approximately 30 seconds followed by spreading with greater pressure for approximately 30 seconds. The resulting sample was left to equilibrate for 15 minutes in the dark at room temperature to ensure a self-leveling of the formula. To account for lack of photostability, a pre-irradiation was necessary. The pre-irradiation dose was 4 minimal erythema dose (MEDs), equivalent to 800 J/m^2-eff. Five measurements of spectral irradiance transmitted for each wavelength through the PMMA plate covered with the sunscreen product were obtained after pre-irradiation of the sunscreen product [P1( ), P2( ), P3( ), P4( ) and P5( )]. For each compound, mean absorbance values were determined from at least three individual PMMA plates. To validate the accuracy of the results, a control product with an established SPF of 18-20, Lot 11T0313 was tested simultaneously with the compounds. SPF in vitro was calculated for each plate using the Colipa 2011 equation.

Row | Residual weight % at different temperatures ([1]; 100 (° C.)) | Residual weight % at different temperatures ([1]; 190 (° C.)) | Residual weight % at different temperatures ([1]; 210 (° C.)) | Residual weight % at different temperatures ([1]; 250 (° C.)) | T onset [1] | SMILES | SPF Change % [2] [%] | ΔSPF [2] | SPF in vitro mean [2] | UV APF [2] | SPF P [2] | UV APF P [2]
1 | 99.6 w % and 99.5 w % | 99.4 w % and 99.2 w % | 99.3 w % and 99.0 w % | 97.7 w % and 91.7 w % | 256.0 C and 248.2 C | C#Cc1ccc(NC2C=C(NCC(=O)OCC)CC(C)(C)C2)cc1 (centres unmarked) [Formula 76] | – | – | – | – | – | –
2 | 99.4 w % | 92.9 w % | 82.0 w % | 68.1 w % | 190.5 C | COC(=O)C(Cc1ccccc1)NC1=C/C(=N/c2ccc(F)cc2)CC(C)(C)C1 (centres unmarked) [Formula 67] | – | – | – | – | – | –
3 | 99.3 w % | 95.2 w % | 88.0 w % | 82.5 w % | 193.6 C | CCCCCCCCOc1ccc(/N=C2/C=C(NC(Cc3ccccc3)C(=O)OC)CC(C)(C)C2)cc1 (centres unmarked) [Formula 69] | – | – | – | – | – | –
4 | 97.8 w % | 85.6 w % | 77.0 w % | 58.2 w % | 168.9 C | CCOC(=O)C1CSC2=C(CC(C)(C)C/C2=N\c2ccc(OCc3ccccc3)cc2)N1 (centres unmarked) [Formula 60] | – | – | – | – | – | –
5 | 98.7 w % | 97.3 w % | 88.4 w % | 68.0 w % | 197.4 C | C#Cc1ccc(/N=C2\CC(C)(C)CC3=C2SCC(C(=O)OCC)N3)cc1 (centres unmarked) [Formula 63] | – | – | – | – | – | –
6 | 97.2 w % | 87.7 w % | 80.3 w % | 60.9 w % | 187.0 C | CCOC(=O)C1CSC2=C(CC(C)(C)C/C2=N\c2ccc(Nc3ccccc3)cc2)N1 (centres unmarked) [Formula 64] | – | – | – | – | – | –
7 | 99.2 w % | 91.2 w % | 83.8 w % | 66.4 w % | 187.4 C | CCOC(=O)C1CSC2=C(CC(C)(C)CC2Nc2ccccc2)N1 (centres unmarked) [Formula 77] | – | – | – | – | – | –
8 | 95.3 w % | 91.7 w % | 89.3 w % | 80.3 w % | 200.2 C | CCOC(=O)C1CSC2=C(CC(C)(C)C/C2=N\c2ccc(Cn3cncn3)cc2)N1 (centres unmarked) [Formula 65] | – | – | – | – | – | –
9 | 94.5 w % | 85.0 w % | 75.8 w % | 54.0 w % | 186.1 C | CCOC(=O)C1CSC2=C(CC(C)(C)C/C2=N\c2ccc(N3CCOCC3)cc2)N1 (centres unmarked) [Formula 62] | – | – | – | – | – | –
10 | 99.4 w % | 98.9 w % | 94.3 w % | 68.0 w % | 207.6 C | CCOC(=O)CNC1=C/C(=N/c2ccc3c(c2)OCCO3)CC(C)(C)C1 [Formula 56] | – | – | – | – | – | –
11 | 99.0 w % | 98.2 w % | 92.6 w % | 62.1 w % | 205.0 C | CCOC(=O)C1CSC2=C(CC(C)(C)C/C2=N\c2ccc(Oc3ccccc3)cc2)N1 (centres unmarked) [Formula 61] | – | – | – | – | – | –
12 | 97.9 w % | 93.6 w % | 87.3 w % | 75.0 w % | 197.2 C | COC(=O)C(Cc1ccccc1)NC1=C/C(=N/c2ccc(OC)cc2)CC(C)(C)C1 (centres unmarked) [Formula 68] | – | – | – | – | – | –

The next lines start with the compound.

Row | SMILES | Residual weight % at different temperatures ([1]; 100 (° C.)) | Residual weight % at different temperatures ([1]; 190 (° C.)) | Residual weight % at different temperatures ([1]; 210 (° C.)) | Residual weight % at different temperatures ([1]; 250 (° C.)) | T onset [1] | SPF Change % [2] [%] | ΔSPF [2] | SPF in vitro mean [2] | UV APF [2] | SPF P [2] | UV APF P [2]
13 | CCOC(=O)CNC1=C/C(=N/c2ccc(OC(F)(F)F)cc2)CC(C)(C)C1 [Formula 53] | 99.5 w % | 98.6 w % | 86.3 w % | 40.5 w % | 199.3 C | – | – | – | – | – | –
14 | CCOC(=O)CNC1=C/C(=N/c2ccc(Nc3ccccc3)cc2)CC(C)(C)C1 [Formula 47] | 99.5 w % | 99.2 w % | 99.0 w % | 79.5 w % | 226.0 C | – | – | – | – | – | –
15 | CCOC(=O)CNC1=C/C(=N/c2ccc(-c3ccccc3)cc2)CC(C)(C)C1 [Formula 31] | – | – | – | – | – | 63 | 13 | 32.75 | 2.95 | 30.52 | 2.88
16 | CCOC(=O)CNC1=C/C(=N/c2ccc(/N=N/c3ccccc3)cc2)CC(C)(C)C1 [Formula 33] | – | – | – | – | – | 81 | 16 | 36.23 | 4.26 | 33.16 | 4.36
17 | CCOC(=O)CNC1=CC(Nc2ccc(OC)cc2)CC(C)(C)C1 (centres unmarked) [Formula 72] | – | – | – | – | – | 18 | 4 | 23.61 | 2.85 | 21.12 | 2.74
18 | CCOC(=O)CNC1=C/C(=N/c2ccc(N3CCOCC3)cc2)CC(C)(C)C1 [Formula 48] | 99.2 w % | 98.8 w % | 97.8 w % | 72.9 w % | 215.7 C | – | – | – | – | – | –
19 | CCOC(=O)CNC1=C/C(=N/c2ccc(/N=N/c3ccc([N+](=O)[O-])cc3)cc2)CC(C)(C)C1 [Formula 35] | – | – | – | – | – | 7 | 2 | 21.53 | 17.35 | 17.94 | 14.64
20 | CCOC(=O)CNC1=C/C(=N/c2ccccc2)CC(C)(C)C1 [Formula 46] | 99.4 w % | 99.1 w % | 98.4 w % | 52.4 w % | 215.2 C | – | – | – | – | – | –
21 | CCOC(=O)CNC1=C/C(=N/c2ccc(NC(=O)OC(C)(C)C)cc2)CC(C)(C)C1 [Formula 54] | 98.0 w % | 84.0 w % | 72.7 w % | 60.1 w % | 176.7 C | – | – | – | – | – | –
22 | CCOC(=O)CNC1=C/C(=N/c2ccc(Cn3cncn3)cc2)CC(C)(C)C1 [Formula 55] | 97.8 w % | 96.4 w % | 92.2 w % | 71.2 w % | 205.0 C | – | – | – | – | – | –
23 | CCOC(=O)CNC1=C/C(=N/c2ccc(N(C)C)cc2)CC(C)(C)C1 [Formula 52] | 95.9 w % | 92.4 w % | 86.0 w % | 63.2 w % | 199.1 C | – | – | – | – | – | –
24 | CCOC(=O)CNC1=C/C(=N/c2ccc(C(C)=O)cc2)CC(C)(C)C1 [Formula 51] | 99.5 w % | 96.1 w % | 85.8 w % | 65.1 w % | 188.0 C | – | – | – | – | – | –
25 | CCOC(=O)CNC1=C/C(=N/c2ccc(Oc3ccccc3)cc2)CC(C)(C)C1 [Formula 50] | 99.2 w % | 98.1 w % | 97.9 w % | 69.3 w % | 229.5 C | – | – | – | – | – | –
26 | CCOC(=O)CNC1=C/C(=N/c2ccc(OCc3ccccc3)cc2)CC(C)(C)C1 [Formula 49] | 99.3 w % | 97.8 w % | 97.2 w % | 70.2 w % | 215.3 C | – | – | – | – | – | –
